Measurements taken from BindingDB's records for doi:10.1021/jm00213a022 (Sichuan University, 2021).
Peptide text beside a SMILES is read from it. * marks the point of attachment. Cbz = O=C(OCc1ccccc1)*

Experiments:
[1] = molecular target: Matrix metalloproteinase-9 (Homo sapiens, UniProt P14780); test: Inhibition of MMP-9 (unknown origin)
[2] = molecular target: 72 kDa type IV collagenase (Homo sapiens, UniProt P08253); test: Inhibition of MMP-2 (unknown origin)
[3] = molecular target: T1, Proteasome subunit beta type-5 (Homo sapiens, UniProt P28074); test: Inhibition of beta5 proteasome (unknown origin)
T1 sequence (P28074 whole entry): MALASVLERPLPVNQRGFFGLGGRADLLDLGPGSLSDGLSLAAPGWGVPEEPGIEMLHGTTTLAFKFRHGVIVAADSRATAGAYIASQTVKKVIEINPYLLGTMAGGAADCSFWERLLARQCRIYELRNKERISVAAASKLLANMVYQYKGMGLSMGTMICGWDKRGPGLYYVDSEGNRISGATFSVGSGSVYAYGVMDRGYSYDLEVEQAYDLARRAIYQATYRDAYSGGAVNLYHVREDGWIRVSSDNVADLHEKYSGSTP

[4] = molecular target: T2, Proteasome subunit beta type-7 (Homo sapiens, UniProt Q99436); test: Inhibition of beta2 proteasome (unknown origin)
T2 sequence (Q99436 whole entry): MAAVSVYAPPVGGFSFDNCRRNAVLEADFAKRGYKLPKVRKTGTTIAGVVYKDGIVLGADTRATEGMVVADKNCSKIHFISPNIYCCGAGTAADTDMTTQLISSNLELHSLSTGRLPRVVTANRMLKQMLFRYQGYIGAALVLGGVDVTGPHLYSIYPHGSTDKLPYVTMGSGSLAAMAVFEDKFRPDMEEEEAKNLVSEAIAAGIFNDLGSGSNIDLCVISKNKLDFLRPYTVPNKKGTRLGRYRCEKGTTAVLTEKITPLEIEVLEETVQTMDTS

[5] = molecular target: T3, Proteasome subunit beta type-1 (Homo sapiens, UniProt P20618); test: Inhibition of beta 1 proteasome (unknown origin)
T3 sequence (P20618 whole entry): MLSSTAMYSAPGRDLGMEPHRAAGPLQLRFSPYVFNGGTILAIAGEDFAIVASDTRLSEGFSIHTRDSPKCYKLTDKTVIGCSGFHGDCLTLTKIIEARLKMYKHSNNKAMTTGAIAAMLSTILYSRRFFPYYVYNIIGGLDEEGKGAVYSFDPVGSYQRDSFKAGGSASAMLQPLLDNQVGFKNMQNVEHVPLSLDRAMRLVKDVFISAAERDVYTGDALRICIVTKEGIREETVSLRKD

[6] = molecular target: ATP-dependent Clp protease proteolytic subunit, mitochondrial (Homo sapiens, UniProt Q16740); test: Agonist activity at human recombinant CLpP (57 to 277 amino acids) expressed in Escherichia coli using fluorogenic peptide AC-WLA-AMC as substrate incubated for 10 mins by fluorescence based assay
Procathepsin L [7] = molecular target: T4, Procathepsin L (Homo sapiens, UniProt P07711); test: Inhibition of human cathepsin L
Cathepsin K = molecular target: T5, Cathepsin K (Homo sapiens, UniProt P43235); test: Inhibition of human cathepsin K
T5 sequence (P43235 whole entry): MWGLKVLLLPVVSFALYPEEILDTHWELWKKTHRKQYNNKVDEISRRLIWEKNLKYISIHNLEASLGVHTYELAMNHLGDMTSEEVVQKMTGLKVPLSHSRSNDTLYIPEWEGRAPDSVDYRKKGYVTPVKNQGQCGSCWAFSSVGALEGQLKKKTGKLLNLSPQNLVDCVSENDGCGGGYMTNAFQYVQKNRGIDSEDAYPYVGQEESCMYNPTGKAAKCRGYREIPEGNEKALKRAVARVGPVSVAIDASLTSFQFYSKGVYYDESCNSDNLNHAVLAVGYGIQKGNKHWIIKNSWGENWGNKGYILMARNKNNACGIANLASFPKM

Procathepsin L [8] = molecular target: T4, Procathepsin L; test: Binding affinity to Cathepsin L (unknown origin) assessed as inhibition constant

Chain of 72 kDa type IV collagenase (P08253 whole entry): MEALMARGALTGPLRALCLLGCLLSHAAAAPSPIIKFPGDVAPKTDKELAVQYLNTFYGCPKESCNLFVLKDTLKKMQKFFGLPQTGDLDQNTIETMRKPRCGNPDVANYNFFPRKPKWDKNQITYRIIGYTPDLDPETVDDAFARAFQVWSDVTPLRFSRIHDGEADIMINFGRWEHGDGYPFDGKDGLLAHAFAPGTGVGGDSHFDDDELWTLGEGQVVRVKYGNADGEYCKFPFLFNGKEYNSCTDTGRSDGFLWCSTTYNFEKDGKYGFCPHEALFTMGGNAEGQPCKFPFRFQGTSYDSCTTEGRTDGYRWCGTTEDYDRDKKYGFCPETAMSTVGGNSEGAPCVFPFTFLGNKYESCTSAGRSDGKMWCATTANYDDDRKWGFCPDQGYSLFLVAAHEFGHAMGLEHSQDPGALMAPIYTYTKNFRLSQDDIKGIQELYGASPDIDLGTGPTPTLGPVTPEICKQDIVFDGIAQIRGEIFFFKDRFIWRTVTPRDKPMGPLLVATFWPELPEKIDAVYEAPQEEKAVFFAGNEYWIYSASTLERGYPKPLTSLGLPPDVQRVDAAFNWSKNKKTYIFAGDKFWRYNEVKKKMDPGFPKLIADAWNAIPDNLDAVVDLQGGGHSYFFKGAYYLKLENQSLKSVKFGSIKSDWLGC
Chain of Matrix metalloproteinase-9 (P14780 whole entry): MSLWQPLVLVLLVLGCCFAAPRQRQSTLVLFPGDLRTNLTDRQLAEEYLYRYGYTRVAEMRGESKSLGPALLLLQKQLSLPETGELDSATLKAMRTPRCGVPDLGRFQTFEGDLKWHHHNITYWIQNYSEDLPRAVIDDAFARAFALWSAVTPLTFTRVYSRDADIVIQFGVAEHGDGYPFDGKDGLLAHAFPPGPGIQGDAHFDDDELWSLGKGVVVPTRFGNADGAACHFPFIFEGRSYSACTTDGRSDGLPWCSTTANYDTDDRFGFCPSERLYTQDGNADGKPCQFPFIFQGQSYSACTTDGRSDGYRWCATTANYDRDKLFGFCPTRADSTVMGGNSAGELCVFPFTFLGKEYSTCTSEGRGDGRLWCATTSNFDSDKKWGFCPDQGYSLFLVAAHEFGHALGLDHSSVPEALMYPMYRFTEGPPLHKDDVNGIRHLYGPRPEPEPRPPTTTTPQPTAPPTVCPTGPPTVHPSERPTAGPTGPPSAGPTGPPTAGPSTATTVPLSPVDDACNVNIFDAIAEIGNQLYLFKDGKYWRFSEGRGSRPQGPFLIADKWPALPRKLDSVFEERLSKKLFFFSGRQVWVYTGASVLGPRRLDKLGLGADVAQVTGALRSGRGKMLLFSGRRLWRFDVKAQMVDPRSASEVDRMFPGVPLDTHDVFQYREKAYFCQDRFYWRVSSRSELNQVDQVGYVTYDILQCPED
Chain of ATP-dependent Clp protease proteolytic subunit, mitochondrial (Q16740 whole entry, the tested form may be a part): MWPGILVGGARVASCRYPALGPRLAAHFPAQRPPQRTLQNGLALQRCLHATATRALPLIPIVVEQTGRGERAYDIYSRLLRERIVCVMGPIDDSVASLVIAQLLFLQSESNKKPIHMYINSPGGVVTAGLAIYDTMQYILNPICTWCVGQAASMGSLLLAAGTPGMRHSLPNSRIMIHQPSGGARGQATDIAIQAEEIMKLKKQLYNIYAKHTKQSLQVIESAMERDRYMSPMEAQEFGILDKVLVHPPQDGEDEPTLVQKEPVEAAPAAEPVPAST
T4 sequence (P07711 whole entry): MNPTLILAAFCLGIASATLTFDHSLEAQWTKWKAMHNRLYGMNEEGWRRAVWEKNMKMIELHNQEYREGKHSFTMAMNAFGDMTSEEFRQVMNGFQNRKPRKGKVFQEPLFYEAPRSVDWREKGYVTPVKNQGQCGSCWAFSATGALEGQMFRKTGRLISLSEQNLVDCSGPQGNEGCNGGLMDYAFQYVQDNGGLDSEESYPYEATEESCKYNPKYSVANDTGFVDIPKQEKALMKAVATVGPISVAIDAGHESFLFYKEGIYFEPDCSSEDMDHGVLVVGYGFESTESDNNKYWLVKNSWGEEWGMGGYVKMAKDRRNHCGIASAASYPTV

COc1ccc(S(=O)(=O)N(Cc2cccnc2)[C@@H](CCF)C(=O)NO)cc1
IC50 [1]: 3 nM | IC50 [2]: 33 nM

O=C1NC2([C@@H](O)[C@@H]3C=CCCC3)C(=O)O[C@H]2[C@H]1CCCl (some centres not stated)
IC50 [3]: 2.6 nM | IC50 [4]: 8 nM | IC50 [5]: 33 nM

O=C(c1ccccc1)c1ccc(S(=O)(=O)CC(CCCc2ccccc2)C(=O)NO)cc1 (configuration not stated) [2-(4-Benzoyl-benzenesulfonylmethyl)-5-phenyl-pentanoic acid hydroxyamide]
IC50 [1]: 5 nM | IC50 [2]: 4 nM

CCN([C@@H](C(=O)O)C(C)C)S(=O)(=O)c1ccc(-c2nc(-c3ccc(C)s3)no2)cc1
IC50 [1]: 36 nM | IC50 [2]: 3.7 nM

CC(C)C[C@H](NC(=O)[C@@H](NC(=O)c1cccc(-c2ccccc2)n1)[C@@H](C)O)B(O)O [(R)-1-((2S,3R)-3-hydroxy-2-(6-phenylpicolinamido)butanamido)-3-methylbutylboronic acid]
IC50 [3]: 1.5 nM

N#Cc1cccc(CN2CCC3=C(C2)C(=O)N(Cc2ccc(Cl)cc2)C2=NCCN23)c1
EC50 [6]: 120 nM

CC(C)[C@H](O)C12NC(=O)[C@H](C)[C@@H]1OC2=O (some centres not stated)
IC50 [3]: 47 nM

CC(C)N1CCN(C2(c3ccc(Oc4ccc(Br)cc4)cc3)C(=O)NC(=O)NC2=O)CC1 [5-[4-(4-Bromo-phenoxy)-phenyl]-5-(4-isopropyl-piperazin-1-yl)-pyrimidine-2,4,6-trione]
IC50 [1]: 1 nM | IC50 [2]: 26 nM

CCc1ccc(C#Cc2ccc(S(=O)(=O)N[C@H](C(=O)O)C(C)C)s2)cc1
IC50 [1]: 4.4 nM | IC50 [2]: 4.8 nM

CC(C)C[C@H](NC(=O)CNC(=O)c1cc(Cl)ccc1Cl)B(O)O
IC50 [4]: 3500 nM

N#CN1CC(CNC(=O)C2CCCCC2)C1 [Cyclohexanecarboxylic acid (1-cyano-azetidin-3-ylmethyl)-amide]
IC50 (Procathepsin L [7]): 6 nM | IC50 (Cathepsin K): 5 nM

N#Cc1cccc(CN2CCC3=C(C2)C(=O)N(Cc2ccc(C(F)(F)F)cc2)C2=NCCN23)c1
EC50 [6]: 120 nM

Cn1c2c(c(=O)n(Cc3ccc(Cl)cc3)c1=O)CN(Cc1cccc(C#N)c1)CC2
EC50 [6]: 135 nM

Cc1cccc(CN2CCc3c(c(=O)n(Cc4ccc(C(F)(F)F)cc4)c(=O)n3CCCN)C2)c1
EC50 [6]: 120 nM

C#Cc1cccc(CN2CCC3=C(C2)C(=O)N(Cc2ccc(C)cc2)C2=NCCN23)c1
EC50 [6]: 800 nM

CC(C)C[C@@H](C=O)NC(=O)[C@H](CC(C)C)NC(=O)[C@H](CC(C)C)NC(=O)OCc1ccccc1 [{1-[(S)-(S)-1-((S)-1-Formyl-3-methyl-butylcarbamoyl)-3-methyl-butylcarbamoyl]-3-methyl-butyl}-carbamic acid benzyl ester] (Cbz-Leu-Leu-Leu-aldehyde)
IC50 [4]: 1080 nM

CC(C)C[C@H](NC(=O)OC(C)(C)C)C(=O)N1C[C@H]1C(=O)N1[C@H](C(=O)OCc2ccccc2)[C@@H]1C(=O)OCc1ccccc1
Ki (Procathepsin L [8]): 13 nM

COc1ccc(-c2ccc(S(=O)(=O)N(OC(C)C)[C@H](CCC3C(=O)c4ccccc4C3=O)C(=O)NO)cc2)cc1
IC50 [1]: 0.43 nM | IC50 [2]: 0.67 nM
